The record followed here is US10206908B2, “3-(1H-pyrrolo[3,2-C]pyridin-2-YL)-1H-pyrazolo[3,4-C]pyridines and therapeutic uses thereof” (Samumed, LLC, priority 2015, dated 2019).

Holding throughout (type): cell-based
The subject of experiment [1] is primary human mesenchymal stem cells (hMSCs). The experiment in a line: Induction of chondrogenesis in hMSCs (chondrogenic nodules, Rhodamine B/Nile Red). The following applies: 6 days; for EC50: concentration required to induce 50% levels of chondrogenesis vs TGF-β3, read-out: Conc (nM) of 50% TGF-β3 activity; for Emax: relative to TGF-β3 (10 ng/mL) positive control, read-out: Max. Activity as % TGF-β3 activity. An excerpt: Representative compounds were screened using primary human mesenchymal stem cells (hMSCs) to determine their ability to induce chondrogenesis (process by which cartilage is developed).
Human Mesenchymal Stem Cell Culture: Primary human mesenchymal stem cells (hMSCs) were purchased from Lonza (Walkersville, Md.) and expanded in Mesenchymal Stem Cell Growth Media (Lonza). Cells between passage 3 and 6 were used for the experiments.
Number of nodules in each well was normalized to the average of 3 DMSO treated wells on the same plate using Excel (Microsoft Inc.). The normalized averages (fold change over DMSO) of 3 replicate wells for each compound concentration were calculated. Due to solubility limitations of some of the compounds, curve fitting was incomplete leading to inaccurate EC50 determinations.
Using TGF-β3 as a positive control, the concentration of representative compounds required to induce 50% levels of chondrogenesis is reported. In addition, the maximum activity of each compound and the respective dose that each compound reached maximum chondrogenesis activity is reported.

Experiment [2] concerns IL-6 (THP-1 cells). The experiment in a line: IL-6 inhibition in LPS-stimulated THP-1 monocytes (HTRF). To be noted: Homo sapiens; for inhibition at 10 µM: THP-1, read-out: percent inhibition at 10 μM; for EC50: IL-6, THP-1 cells, LPS 500 ng/mL, 22 hours. The method in brief: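 THP-1 cells kept 24 h in 1% FBS medium, exposed to compound 2 h at 37 °C, then stimulated with 500 ng/mL LPS for 22 h. Secreted IL-6 quantified by HTRF (665/620 nm ratio), duplicates. Values normalized to DMSO; EC50 by four-parameter variable-slope regression.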
In general terms: In TR-FRET formats the signal depends on donor and acceptor labels being close together.

Experiment [3] has as its system primary human fibroblasts derived from IPF patients (LL29 cells) treated with TGF-β1. Nature of the experiment: Inhibition of the fibrotic process: αSMA staining in TGF-β1 treated LL29 fibroblasts. The following applies: Fibroblast; for EC50: 96 h, % αSMA positive LL29 cells, TGF-β1 20 ng/mL, 4 days; for inhibition at 10 µM: read-out: percent inhibition at 10 μM. The method in brief: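 Read-out after 4-day incubation: αSMA staining with 1 μM SYTOX green nuclear counterstain (30 min, room temperature). Cells were LL29 primary fibroblasts from IPF patients, in 1% FBS F12, exposed to TGF-β1 with test compound, referenced to TGF-β1/DMSO control wells.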

Experiment [4] concerns Wnt activity (Sp5-Luc reporter, SW480 colon carcinoma cells). Nature of the experiment: Screening assay for Wnt activity: Sp5-Luc reporter gene assay in SW480 colon carcinoma cells. The following applies: Homo sapiens; for EC50: Sp5-Luc reporter, SW480 cells, overnight incubation; for inhibition at 10 µM: SW480, read-out: percent inhibition at 10 μM. In outline: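 SW480 colon carcinoma cells stably carrying Sp5 promoter (eight TCF/LEF sites)-driven firefly luciferase, plated at 4,000 cells/well in 1% FBS medium and incubated overnight at 37° C. Luminescence normalised to DMSO-only cells; EC50 from four-parameter variable-slope nonlinear regression.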
(In general: A reporter such as luciferase makes a cellular process visible.)

The test system of experiment [5] is SW480 colon cancer cells. Nature of the experiment: Cell viability assay (CellTiter-Blue) in SW480 colon cancer cells. The following applies: Homo sapiens; for EC50: 96 h, SW480 cell viability, four days; for inhibition at 10 µM: SW480, read-out: percent inhibition at 10 μM. The method in brief: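 Fluorescence from resazurin reduced to resorufin by metabolically active cells was the read-out, taken after ~3 h with CellTiter-Blue.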

Molecules are shown by their SMILES.

Consider `c1csc(-c2nccc3[nH]c(-c4n[nH]c5cnc(-c6cncc(CN7CCCCC7)c6)cc45)cc23)c1` [Compound 351, 5-(5-(Piperidin-1-ylmethyl)pyridin-3-yl)-3-(4-(thiophen-2-yl)-1H-pyrrolo[3,2-c]pyridin-2-yl)-1H-pyrazolo[3,4-c]pyridine], for which the EC50 in experiment [1] is 10 nM; in experiment [2] it was over 10000 nM; in experiment [3], 1990 nM; in experiment [4] it was 3650 nM; in experiment [5], 2400 nM. The Emax in experiment [1] was 59%. Further, the inhibition at 10 µM in experiment [2] was 0%.

Turning to `CS(=O)(=O)NCc1cc(F)cc(-c2nccc3[nH]c(-c4n[nH]c5cnc(-c6cncc(OCc7ccccc7)c6)cc45)cc23)c1` [Compound 774, N-(3-(2-(5-(5-(Benzyloxy)pyridin-3-yl)-1H-pyrazolo[3,4-c]pyridin-3-yl)-1H-pyrrolo[3,2-c]pyridin-4-yl)-5-fluorobenzyl)methanesulfonamide], the EC50 was 300 nM in experiment [1]; 1100 nM in experiment [2]; 363 nM in experiment [3]; 1510 nM in experiment [4]; 2450 nM in experiment [5]. The Emax in experiment [1] was 115%.

Regarding `CS(=O)(=O)NCc1cc(F)cc(-c2nccc3[nH]c(-c4n[nH]c5cnc(-c6cncc(CNCC7CCCC7)c6)cc45)cc23)c1` [Compound 501, N-(3-(2-(5-(5-(((Cyclopentylmethyl)amino)methyl)pyridin-3-yl)-1H-pyrazolo[3,4-c]pyridin-3-yl)-1H-pyrrolo[3,2-c]pyridin-4-yl)-5-fluorobenzyl)methanesulfonamide], the EC50 in experiment [1] was 30 nM; in experiment [2], 3420 nM; in experiment [3], over 10000 nM; in experiment [4], over 10000 nM; in experiment [5], over 10000 nM. Further, in experiment [1], the Emax came out at 52%. The inhibition at 10 µM stood at 41.7% in experiment [3], 49.3% in experiment [4] and 23% in experiment [5].

As to `CC(C)CC(=O)Nc1cncc(-c2cc3c(-c4cc5c(-c6cccs6)nccc5[nH]4)n[nH]c3cn2)c1` [Compound 338, 3-Methyl-N-(5-(3-(4-(thiophen-2-yl)-1H-pyrrolo[3,2-c]pyridin-2-yl)-1H-pyrazolo[3,4-c]pyridin-5-yl)pyridin-3-yl)butanamide], the EC50 came to 10 nM in experiment [1]; 449 nM in experiment [2]; 155 nM in experiment [3]; 572 nM in experiment [4]; 440 nM in experiment [5]. Also, the Emax in experiment [1] was found to be 81%.

As to `CN(C)c1cncc(-c2cc3c(-c4cc5cnccc5[nH]4)n[nH]c3cn2)c1` [Compound 259, 5-(3-(1H-Pyrrolo[3,2-c]pyridin-2-yl)-1H-pyrazolo[3,4-c]pyridin-5-yl)-N,N-dimethylpyridin-3-amine], the EC50 in experiment [1] turned out to be 300 nM; in experiment [2] it was 2220 nM; in experiment [3], 401 nM; in experiment [4], 3060 nM; in experiment [5], 1600 nM. For the same compound, in experiment [1], the Emax came out at 101%.

On to `CC(C)C(=O)Nc1cncc(-c2cc3c(-c4cc5c(-c6ccncc6)nccc5[nH]4)n[nH]c3cn2)c1` [Compound 121, N-(5-(3-(4-(Pyridin-4-yl)-1H-pyrrolo[3,2-c]pyridin-2-yl)-1H-pyrazolo[3,4-c]pyridin-5-yl)pyridin-3-yl)isobutyramide], for which the Emax in experiment [1] was found to be 32%. Besides, the inhibition at 10 µM in experiment [2] was found to be 0%; in experiment [4] it was 6.2%; in experiment [5], 19.7%. In addition, the EC50 in experiment [2] was over 10000 nM; in experiment [3] it was 9820 nM; in experiment [4], over 10000 nM; in experiment [5], over 10000 nM.

Turning to `Nc1cncc(-c2cc3c(-c4cc5c(-c6ccccc6F)nccc5[nH]4)n[nH]c3cn2)c1` [Compound 59, 5-(3-(4-(2-Fluorophenyl)-1H-pyrrolo[3,2-c]pyridin-2-yl)-1H-pyrazolo[3,4-c]pyridin-5-yl)pyridin-3-amine], the EC50 in experiment [1] was 10 nM; in experiment [2], 119 nM; in experiment [3], 5400 nM; in experiment [4], 224 nM; in experiment [5] it was 940 nM. For the same compound, the Emax in experiment [1] is 117%.

Turning to `CC(C)C(=O)Nc1cncc(-c2cc3c(-c4cc5c(-c6cc(F)cc(CNS(C)(=O)=O)c6)nccc5[nH]4)n[nH]c3cn2)c1` [Compound 485, N-(5-(3-(4-(3-Fluoro-5-(methylsulfonamidomethyl)phenyl)-1H-pyrrolo[3,2-c]pyridin-2-yl)-1H-pyrazolo[3,4-c]pyridin-5-yl)pyridin-3-yl)isobutyramide], the EC50 in experiment [1] is 30 nM; in experiment [2], over 10000 nM; in experiment [3], over 10000 nM; in experiment [4] it was over 10000 nM; in experiment [5] it was over 10000 nM. Besides, in experiment [1], the Emax was found to be 80%. Besides, the inhibition at 10 µM in experiment [2] was 47.8%; in experiment [3] it was 0%; in experiment [4], 43.9%; in experiment [5], 10.5%.

For `O=C(Nc1cncc(-c2cc3c(-c4cc5cnccc5[nH]4)n[nH]c3cn2)c1)C1CC1` [Compound 272, N-(5-(3-(1H-Pyrrolo[3,2-c]pyridin-2-yl)-1H-pyrazolo[3,4-c]pyridin-5-yl)pyridin-3-yl)cyclopropanecarboxamide], the EC50 in experiment [1] was 30 nM; in experiment [2], over 10000 nM; in experiment [3] it was 1900 nM; in experiment [4] it was 1540 nM; in experiment [5] it was over 10000 nM. Besides, the Emax in experiment [1] came to 58%. The inhibition at 10 µM in experiment [2] came out at 9.6%; in experiment [5], 18.6%.

`O=C(Nc1cncc(-c2cc3c(-c4cc5c(-c6ccccc6F)nccc5[nH]4)n[nH]c3cn2)c1)C1CCC1` [Compound 77, N-(5-(3-(4-(2-Fluorophenyl)-1H-pyrrolo[3,2-c]pyridin-2-yl)-1H-pyrazolo[3,4-c]pyridin-5-yl)pyridin-3-yl)cyclobutanecarboxamide]: in experiment [1], the Emax stood at 44%. Besides, the EC50 in experiment [2] came to 2800 nM; in experiment [3], 2820 nM; in experiment [4], 1250 nM; in experiment [5], 4280 nM.

As to `Oc1cncc(-c2cc3c(-c4cc5c(-c6cccs6)nccc5[nH]4)n[nH]c3cn2)c1` [Compound 709, 5-(3-(4-(Thiophen-2-yl)-1H-pyrrolo[3,2-c]pyridin-2-yl)-1H-pyrazolo[3,4-c]pyridin-5-yl)pyridin-3-ol], the EC50 in experiment [1] is 10 nM; in experiment [2], 3190 nM; in experiment [3] it was 340 nM; in experiment [4], 1010 nM; in experiment [5] it was 6350 nM. Besides, the Emax in experiment [1] turned out to be 83%.

On to `CN(C)Cc1cncc(-c2cc3c(-c4cc5c(N6CCN(C)CC6)nccc5[nH]4)n[nH]c3cn2)c1` [Compound 237, N,N-Dimethyl-1-(5-(3-(4-(4-methylpiperazin-1-yl)-1H-pyrrolo[3,2-c]pyridin-2-yl)-1H-pyrazolo[3,4-c]pyridin-5-yl)pyridin-3-yl)methanamine], for which, in experiment [1], the Emax came to 14%. Moreover, the EC50 in experiment [2] is 4680 nM; in experiment [3] it was over 10000 nM; in experiment [4], 3890 nM; in experiment [5] it was over 10000 nM. Moreover, the inhibition at 10 µM came to 37% in experiment [3] and 43.7% in experiment [5].

On to `CCNCc1cncc(-c2cc3c(-c4cc5c(N6CCCCC6)nccc5[nH]4)n[nH]c3cn2)c1` [Compound 174, N-((5-(3-(4-(Piperidin-1-yl)-1H-pyrrolo[3,2-c]pyridin-2-yl)-1H-pyrazolo[3,4-c]pyridin-5-yl)pyridin-3-yl)methyl)ethanamine], for which the EC50 in experiment [1] was found to be 10 nM; in experiment [2], 1020 nM; in experiment [3] it was 1200 nM; in experiment [4] it was 2770 nM; in experiment [5], 2370 nM. For the same compound, the Emax in experiment [1] stood at 183%.

For `CN1CCN(c2nccc3[nH]c(-c4n[nH]c5cnc(-c6cncc(N)c6)cc45)cc23)CC1` [Compound 227, 5-(3-(4-(4-Methylpiperazin-1-yl)-1H-pyrrolo[3,2-c]pyridin-2-yl)-1H-pyrazolo[3,4-c]pyridin-5-yl)pyridin-3-amine], the Emax in experiment [1] stood at 50%. Also, the inhibition at 10 µM in experiment [2] worked out at 39.5%; in experiment [4], 46.2%; in experiment [5] it was 20.5%. Also, the EC50 in experiment [2] was over 10000 nM; in experiment [3] it was 5410 nM; in experiment [4] it was over 10000 nM; in experiment [5], over 10000 nM.

The inhibition is the drop in the measured response relative to a control, in per cent.
